How the values were obtained:
mHTT protein = mHTT protein assay (2B7-MW1, Mesoscale Discovery); type: cell-based, human; conditions: GM04724 (CAG 70/20) Huntington's disease patient lymphoblast cells, 48 hours, 2B7-MW1 MSD; read-out: HTT Potency - Protein EC50 mHTT (average)
Description: Compounds are tested on GM04724 (CAG 70/20) Huntington's disease patient lymphoblast cells at doses ranging from 10 μM to 0.6 nM. 4,500 cells/well are seeded in 384 well plates. One plate replica is carried out for parallel viability testing by CellTiter Glo (CTG). Compounds are incubated for 48 hours, mHTT protein levels are assessed by the 2B7-MW1 assay via Mesoscale Discovery (MSD) as previously reported (Macdonald et al., 2014). The antibody pair is comprised of previously characterized monoclonals (2B7 and MW1) interrogating two regions for HTT conformation and biological properties: the N17 domain and the polyQ domain (Baldo et al., 2012; Ko et., 2001). 2B7-MW1 is dependent on subject/animal specific levels of HTT at the time of treatment. 2B7-MW1 is dependent on polyQ expansion (e.g., the higher the expansion the higher the signal) and on mHTT size (e.g., a similar polyQ will give higher signal with smaller HTT size). The viability readout is carried out by CTG according to the manufacturer's instructions.

[1] = tested on: MDR1-MDCK cell monolayers; experiment: MDCK-MDR1 permeability assay (BBB penetration potential); type: in vitro ADME; conditions: dog, MDCK-MDR1, 120 min, 5 μM, pH 7.4
Description: (§1) Each determination is performed in duplicate. […] Analytical conditions are outlined below.

MDR1 = experiment: as above; type: in vitro ADME; conditions: dog; for efflux ratio at 120 min, 5 μM: MDCK-MDR1, pH 7.4, MDCK-MDR1: Efflux; for Papp A→B at 120 min, 5 μM: MDCK-MDR1, pH 7.4, MDCK-MDR1: Papp A-B; for Papp B→A at 120 min, 5 μM: MDCK-MDR1, pH 7.4, MDCK-MDR1: Papp B-A
Description: as §1

Compound | EC50 (mHTT protein) | MDCK-MDR1: % Recov A-B [1] | MDCK-MDR1: % Recov B-A [1] | efflux ratio at 120 min, 5 μM (MDR1) | Papp A→B at 120 min, 5 μM (MDR1) | Papp B→A at 120 min, 5 μM (MDR1)
Oc1cc(-c2cn[nH]c2)ccc1-c1ccc(O[C@H]2C[C@@H]3COC[C@@H](N3)[C@H]2F)nn1 (single isomer, unassigned) [123-ENT2] | 101 to 500 nM | 87% | 93% | 10 | 7.03 ×10⁻⁶ cm/s | 69.8 ×10⁻⁶ cm/s
Oc1cc2ccncc2cc1-c1ccc(O[C@H]2C[C@@H]3CCC[C@@H](N3)[C@H]2F)nn1 (single isomer, unassigned) [81-ENT2] | 501 to 10000 nM | 69% | 81% | 3 | 9.23 ×10⁻⁶ cm/s | 26.4 ×10⁻⁶ cm/s
Oc1cc(-c2cnn3ccccc23)ccc1-c1ccc(O[C@@H]2C[C@H]3CCC[C@H](N3)[C@@H]2F)nn1 (single isomer, unassigned) [91-ENT1] | 101 to 500 nM | 30% | 57% | 3 | 4.52 ×10⁻⁶ cm/s | 15.5 ×10⁻⁶ cm/s
Oc1cc(-n2ncc3ccccc32)ccc1-c1ccc(O[C@H]2C[C@@H]3CC[C@@H](N3)[C@H]2F)nn1 (single isomer, unassigned) [114-ENT2] | 501 to 10000 nM | 18% | 42% | 4 | 3.86 ×10⁻⁶ cm/s | 15.1 ×10⁻⁶ cm/s
Cc1cncc(-c2ccc(-c3ccc(O[C@@H]4C[C@H]5CCC[C@H](N5)[C@@H]4F)nn3)c(O)c2)n1 (single isomer, unassigned) [102-ENT1] | 101 to 500 nM | 89% | 90% | 6 | 7.66 ×10⁻⁶ cm/s | 43.1 ×10⁻⁶ cm/s
CN(C)C(=O)c1cc2cc(O)c(-c3ccc(O[C@@H]4C[C@@]5(C)CCC[C@](C)(N5)[C@@H]4F)nn3)cc2o1 (single isomer, unassigned) [155-ENT1] | 501 to 10000 nM | 90% | 95% | 16 | 3.71 ×10⁻⁶ cm/s | 59.4 ×10⁻⁶ cm/s
Oc1cc2cccnc2cc1-c1ccc(O[C@@H]2C[C@H]3CCC[C@H](N3)[C@@H]2F)nn1 (single isomer, unassigned) [105-ENT1] | 101 to 500 nM | 92% | 84% | 6 | 8.12 ×10⁻⁶ cm/s | 47.1 ×10⁻⁶ cm/s
Cn1cc(-c2ccc(-c3ccc(O[C@H]4C[C@]5(C)CC[C@@](C)(N5)[C@H]4F)nn3)c(O)c2)cn1 (single isomer, unassigned) [150-ENT1] | 51 to 100 nM | 77% | 85% | 4 | 7.55 ×10⁻⁶ cm/s | 27.9 ×10⁻⁶ cm/s
Cc1nnc(-c2ccc(-c3ccc(O[C@H]4C[C@@H]5CCC[C@@H](N5)[C@H]4F)nn3)c(O)c2)s1 (single isomer, unassigned) [95-ENT2] | 101 to 500 nM | 78% | 87% | 9 | 3.59 ×10⁻⁶ cm/s | 33.1 ×10⁻⁶ cm/s
Cn1cc(-c2ccc(-c3ccc(O[C@@H]4C[C@@H]5CCC[C@@H](N5)[C@@H]4F)nn3)c(O)c2)cn1 (single isomer, unassigned) [122-ENT2] | 501 to 10000 nM | 60% | 76% | 6 | 6.08 ×10⁻⁶ cm/s | 38.4 ×10⁻⁶ cm/s
Oc1cc(-n2ccnc2)ccc1-c1ccc(O[C@@H]2C[C@H]3CC(F)(F)[C@@H](C2)N3)nn1 (single isomer, unassigned) [51-ENT1] | 501 to 10000 nM | 90% | 99% | 2 | 32.2 ×10⁻⁶ cm/s | 51.5 ×10⁻⁶ cm/s
Cc1nnc(-c2ccc(-c3ccc(O[C@H]4C[C@@H]5CCC[C@@H](N5)[C@H]4F)nn3)c(O)c2)o1 (single isomer, unassigned) [94-ENT2] | 101 to 500 nM | 93% | 87% | 7 | 6.35 ×10⁻⁶ cm/s | 46.7 ×10⁻⁶ cm/s
O=c1cc(-c2cc(O)c(-c3ccc(O[C@H]4C[C@@H]5CCC[C@@H](N5)[C@H]4F)nn3)cc2F)cc[nH]1 (single isomer, unassigned) [57-ENT2] | 101 to 500 nM | 77% | 87% | 90 | 0.35 ×10⁻⁶ cm/s | 31.3 ×10⁻⁶ cm/s
CNC(=O)c1ccc2cc(-c3ccc(O[C@H]4C[C@@H]5CCC[C@@H](N5)[C@H]4F)nn3)c(O)cc2n1 (single isomer, unassigned) [136-ENT1] | 0.01 to 15 nM | 88% | 101% | 28 | 2.27 ×10⁻⁶ cm/s | 62.3 ×10⁻⁶ cm/s
Cc1ccc(-c2ccc(-c3ccc(O[C@@H]4C[C@H]5CCC[C@H](N5)[C@@H]4F)nn3)c(O)c2)o1 (single isomer, unassigned) [99-ENT1] | 101 to 500 nM | 9% | 47% | 1 | 2.07 ×10⁻⁶ cm/s | 2.37 ×10⁻⁶ cm/s
Oc1cc2ccncc2cc1-c1ccc(O[C@@H]2C[C@H]3CCC[C@H](N3)[C@@H]2F)nn1 (single isomer, unassigned) [81-ENT1] | 501 to 10000 nM | 69% | 77% | 3 | 7.34 ×10⁻⁶ cm/s | 22.8 ×10⁻⁶ cm/s
Cn1cc(-c2ccc(-c3ccc(O[C@@H]4C[C@H]5COC[C@H](N5)[C@@H]4F)nn3)c(O)c2)cn1 (single isomer, unassigned) [124-ENT1] | 501 to 10000 nM | 82% | 88% | 3 | 17.5 ×10⁻⁶ cm/s | 51.5 ×10⁻⁶ cm/s
Cc1ccc(-c2ccc(-c3ccc(O[C@@H]4C[C@H]5CCC[C@H](N5)[C@@H]4F)nn3)c(O)c2)cn1 (single isomer, unassigned) [67-ENT1] | 101 to 500 nM | 44% | 62% | 7 | 4.42 ×10⁻⁶ cm/s | 29.8 ×10⁻⁶ cm/s
O=c1cc(-c2cc(O)c(-c3ccc(O[C@@H]4C[C@H]5CCC[C@H](N5)[C@@H]4F)nn3)cc2F)cc[nH]1 (single isomer, unassigned) [57-ENT1] | 101 to 500 nM | 94% | 101% | 73 | 0.26 ×10⁻⁶ cm/s | 18.9 ×10⁻⁶ cm/s
Cn1ccc(-c2ccc(-c3ccc(O[C@H]4C[C@@H]5CCC[C@@H](N5)[C@H]4F)nn3)c(O)c2)nc1=O (single isomer, unassigned) [107-ENT2] | 101 to 500 nM | 97% | 103% | 100 | 0.11 ×10⁻⁶ cm/s | 11.2 ×10⁻⁶ cm/s

Source: US12522597B2, “Methods and compositions for modulating splicing” (Skyhawk Therapeutics, Inc., priority 2019, dated 2026)
